Source: patent publication US8722681B2, “N-sulfonyl thiazolylpiperazine derivatives and related N-sulfonyl heterocyclic derivatives for the treatment of neuro degenerative diseases” (NV reMYND, priority 2007, dated 2014)

What was measured:
[1] = system: M17-SYNwt cells; test: α-synuclein cytotoxicity assay (LDH leakage from paraquat-treated M17-SYNwt cells); format: cell-based, human; settings: Table 2; for EC50: Homo sapiens, M17-SYNwt cells, paraquat 32 mM, 40 hours, LDH activity; for % inh. (percentage inhibition): inhibition of synuclein toxicity at most effective concentration relative to untreated paraquat cells
Text: An α-synuclein expression plasmid was constructed by sub-cloning the NcoI/XhoI fragment from 212T-SYN(WT) (Griffioen et al., Biochem Biophys Acta (2006) 1762(3):312-318) containing the cDNA of human wild type α-synuclein correspondingly into a standard mammalian expression vector pcDNA3.1 resulting in plasmid pcDNA3.1-SYNwt. Plasmid pcDNA3.1 and pcDNA3.1-SYNwt were transfected to human neuroblastoma cells (ATCC No. CRL-2267) and independent clonal lines with the plasmids stably integrated into the genome were selected. […] Over-expression of α-synuclein in M17-SYNwt cell lines was confirmed by Western analysis.
(§1) Due to the high levels of α-synuclein M17-SYNwt cells are exquisitely sensitivity to paraquat, a well-known risk factor of synuclein-dependent neuronal degeneration. In degenerated or dead cells lactate dehydrogenase (LDH) is leaked out of the cells into the extracellular environment due to a loss of plasma-membrane integrity. This principle was used to determine cytotoxicity by quantifying the level of leaked LDH into the growth medium.
(§2) The detailed method for determining α-synuclein cytotoxicity was as follows: From appropriate precultures of M17 and M17-SYN cells were seeded at 50000 cells/cm^2 in Optimem Reduced Serum without phenol red (InVitrogen, Cat. 31985-047) supplemented with 5% fetal calf serum, 1 mM sodium pyruvate, 1×non-essential amino acids, 500 μg/ml G418 0.5×antibiotic/antimycotic. After 3 hours of incubation at 37° C./5% CO2 paraquat was added to the cells (final concentration of 32 mM), together with the test compound and the cells were further incubated for 40 hours. Subsequently, LDH activity was determined using Promega Cytotox 96 Non-Radioactive cytotoxicity assay, (Cat. G1780) according the supplier's instructions.
This α-synuclein expressing neuroblastoma cells made it possible to assess the ability of novel compounds to counteract α-synuclein cytotoxicity. […] Since this method monitors leaked LDH from degenerated or dead cells only non-toxic compounds will be identified as active inhibitors of α-synuclein-mediated cytotoxicity. Lack of toxicity is an important characteristic for compounds to be used as a medicament to patients in need. A compound was considered to be active in this test when it inhibits α-synuclein cytotoxicity by more than 25% relative to untreated M17-SYNwt cells at a concentration of 20 μg/mL or lower. In the experiments, the control group consisted of M17-SYNwt cells treated with DMSO, the untreated paraquat group consisted of M17-SYNwt cells treated with paraquat and DMSO, and the treated paraquat group consisted of M17-SYNwt cells treated with paraquat and the test compound dissolved in DMSO.
Percent inhibition was calculated as the synuclein toxicity inhibition by the compound in treated paraquat cells, relative to the synuclein cytotoxicity in untreated paraquat cells.
The compounds from table 1 were screened for activity using the α-synuclein cytotoxicity assay as described above. Dose responses were carried out on all compounds found to be active (10 point curves in duplicate).

[2] = system: M17-SYNwt cells; format: cell-based, human; settings: M17-SYNwt cells treated with paraquat; not seen in M17 cells; FIG. 1
Text: as §1, §2

SMILES | EC50 [1] [nM] | % inh. (percentage inhibition) [1] [%] | level of LDH leaked into the medium [2]
O=S(=O)(c1cccc2nonc12)N1CCN(c2nc(-c3ccc(F)cc3)cs2)CC1 [Compound 74, 4-(4-(4-(4-fluorophenyl)thiazol-2-yl)piperazin-1-ylsulfonyl)benzo[c][1,2,5]oxadiazole] | 233 | 41 | –
O=S(=O)(c1ccc2ccccc2c1)N1CCN(c2nc(-c3ccc(Cl)cc3)cs2)CC1 [Compound 75, 1-(4-(4-chlorophenyl)thiazol-2-yl)-4-(naphthalen-2-ylsulfonyl)piperazine] | 870 | 84 | –
COc1ccccc1-c1csc(N2CCN(S(=O)(=O)c3cccc4c3ccn4C)CC2)n1 [Compound 77, 4-(4-(4-(2-methoxyphenyl)thiazol-2-yl)piperazin-1-ylsulfonyl)-1-methyl-1H-indole] | 257 | 69 | –
Cc1ccc(S(=O)(=O)N2CCN(c3nc(-c4cccs4)cs3)CC2)cc1 [Compound 78, 1-(4-(thiophen-2-yl)thiazol-2-yl)-4-tosylpiperazine] | 316 | 84 | –
C[n+]1ccc(-c2cc[n+](C)cc2)cc1 [paraquat] | – | – | relatively high level
